Source: US20250186604A1, “ANTI-PSMA ANTIBODY CONJUGATES” (ADC THERAPEUTICS SA, priority 2023, published 2025)
Starred links: 1 amine or outer side, 2 acyl side, 3 side chain; linkers in the order of their positions; H or OH if unused. Non-standard residues stand in square brackets, D forms with d. Residues, ends and D or L forms follow the SMILES beside them. *: point of attachment. Exatecan = CC[C@@]1(O)C(=O)OCc2c1cc1n(c2=O)Cc2c-1nc1cc(F)c(C)c3c1c2[C@@H](N*)CC3; Propanoyl(3-maleimido) = O=C1C=CC(=O)N1CCC(=O)*; PABC = O=C(OCc1ccc(N[*:1])cc1)[*:2]

What was measured:
[1] = tested on: a variety of cell lines; conditions: versus SN38; cited from earlier work
[2] = target: T1, topo I/DNA complex (Homo sapiens, UniProt P11387); conditions: versus SN38 (the active metabolite of irinotecan); cited from earlier work
T1 sequence (P11387 1-765): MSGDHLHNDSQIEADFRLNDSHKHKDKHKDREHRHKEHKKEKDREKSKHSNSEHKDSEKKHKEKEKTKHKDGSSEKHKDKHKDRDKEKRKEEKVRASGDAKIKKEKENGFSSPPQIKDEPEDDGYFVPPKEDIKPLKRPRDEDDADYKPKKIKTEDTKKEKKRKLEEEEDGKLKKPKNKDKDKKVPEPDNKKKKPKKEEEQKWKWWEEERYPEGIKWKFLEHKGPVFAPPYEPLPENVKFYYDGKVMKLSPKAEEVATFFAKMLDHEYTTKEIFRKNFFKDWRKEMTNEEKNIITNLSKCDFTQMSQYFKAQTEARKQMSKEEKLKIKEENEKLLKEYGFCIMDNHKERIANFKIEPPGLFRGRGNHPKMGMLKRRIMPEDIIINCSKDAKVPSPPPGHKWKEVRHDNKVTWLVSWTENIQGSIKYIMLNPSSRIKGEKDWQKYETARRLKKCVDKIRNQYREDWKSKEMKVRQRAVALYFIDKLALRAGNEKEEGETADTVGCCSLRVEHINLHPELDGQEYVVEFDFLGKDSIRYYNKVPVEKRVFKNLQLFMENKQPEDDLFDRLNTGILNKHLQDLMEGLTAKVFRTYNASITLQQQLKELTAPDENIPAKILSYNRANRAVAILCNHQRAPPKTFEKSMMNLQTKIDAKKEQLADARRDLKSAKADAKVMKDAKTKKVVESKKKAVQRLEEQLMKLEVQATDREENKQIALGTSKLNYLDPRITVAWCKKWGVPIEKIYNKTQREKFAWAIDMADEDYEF

[3] = Aggregation during conjugation to a test antibody (% monomer by SEC); type: physicochemical; conditions: drug linker conjugated to a test antibody
Description: 2 mg of a test monoclonal antibody at 8.87 mg/ml was pH adjusted with 5% 0.5 M Tris, 0.025 M EDTA, pH 8.5 and reduced with 2.3 mol. eq. TCEP and then conjugated with 6mol. eq. drug linker. After buffer exchange into 30 mM Histidine, 175 mM Sucrose pH 6.0/PBS, the drug to antibody ratio (DAR) was by HIC/LC-MS and % Monomer by size exclusion chromatography (SEC). Percentage monomer values of 95% or greater are assessed as low aggregation.
Aggregation levels were assessed during the conjugation to a test antibody. Conjugation was performed as described above for ADC-1.
During conjugation, we are ideally targeting a monomer content or percentage monomer of 95% or above. Low percentage monomer values usually translate to a higher degree of aggregation. One could therefore agree that percentage monomer values of 95% or higher mean very low levels of aggregation or none, whereas values below this threshold often translate to higher levels of aggregation.

[4] = RP-HPLC retention time correlated with hydrophobicity; type: physicochemical; conditions: high Rt = hydrophobic, low Rt = hydrophilic
Description: • Column: Phenomenex Gemini NX 5 m, C18, 110Å, 150×4.6 mm • Instrument: Shimadzu LC-2030 • Mobile phase: A) water (0.05% TFA), B) acetonitrile (0.05% TFA) • Gradient: 20-70% B over 15 min, flow 1.0 mL/min
A correlation study was also carried out using Reverse-Phase HPLC (RP-HPLC). The two constructs were injected in RP-HPLC and retention times (Rt) correlated with hydrophobicity—i.e., high Rt was associated to hydrophobic constructs whereas low Rt to hydrophilic ones.

## CC[C@@]1(O)C(=O)OCc2c1cc1n(c2=O)Cc2c-1nc1cc(F)c(C)c3c1c2[C@@H](N)CC3 [Exatecan]
[1]
  potency relative to SN38 as a cytotoxin: about 2.5 fold
[2]
  potency relative to SN38 at stabilizing the topo I/DNA complex: about 2.5 fold

## CC[C@@]1(O)C(=O)OCc2c1cc1n(c2=O)Cc2c-1nc1cc(F)c(C)c3c1c2[C@@H](NC(=O)OCc1ccc(NC(=O)[C@H](C)NC(=O)[C@@H](NC(=O)CNC(=O)CNC(=O)CNC(=O)CNC(=O)CNC(=O)CCN2C(=O)C=CC2=O)C(C)C)cc1)CC3 [Mal-Gly5-VA-PABC-Exatecan] ({Propanoyl(3-maleimido)}-GGGGGVA[PABC]-Exatecan)
[3]; SEC, 95% or greater = low aggregation
  Aggregation (% monomer): (98%)
[3]; grade in words
  Aggregation: None
[4]
  Rt: 9.76 min
